According to article PMC7157554, “Anti-Trypanosomal Proteasome Inhibitors Cure Hemolymphatic and Meningoencephalic Murine Infection Models of African Trypanosomiasis” (Tropical Medicine and Infectious Disease, 2020):
Read-outs that look alike come from different tables or passages of the source.

How the values were obtained:
[1] = LogD (measured octanol water co-efficient); format: physicochemical
[2] = PAMPA (parallel artificial membrane permeability assay); format: in vitro ADME; details: FA: fraction absorbed
Protocol: (§1) Test compounds’ solubility was determined in a high-throughput thermodynamic solubility assay, as described previously. The PAMPA (parallel artificial membrane) assays were carried out, using a standard protocol. Plasma protein binding was determined by using mouse blood, whilst brain tissue binding was determined by using rat brain tissue homogenate. Intrinsic metabolic clearances were determined in mouse liver microsomes, using the compound depletion approach and LC–MS/MS quantification.

[3] = Intrinsic metabolic clearance in mouse liver microsomes; format: in vitro ADME
Protocol: as §1

[4] = Intravenous pharmacokinetics in mouse; format: in vivo; details: for T1/2 / Vd: i.v. 5 mg/kg; for T1/2: elimination half-life; for Vd / clearance / half-life: male, BALB/c, iv; for Vd: read-out: Vss; for clearance / half-life: 5 mg/kg; for half-life: i.v., read-out: Elimination half-life (converted)
Protocol: Determination of intravenous (i.v.) and per oral (p.o.) pharmacokinetics (PK) were carried out by using male BALB/c mice. […] To avoid any granular material, the solution was filtered, using a 0.45 μm syringe filter. The filtered solutions were dosed intravenously to mice via the lateral tail vein, at 5 mg/kg, with a dosing volume of 2 mL/kg. For all the p.o. PK studies, compounds were resuspended in 0.5% v/v methyl cellulose in 0.5 % v/v tween 80 solution. For 20 mg/kg dosing, 200 µL of compounds was administered orally to mice. […] Blood samples were collected into heparin microtainers and centrifuged, and then plasma was separated and frozen until analysis. Plasma samples (20 μL) were extracted with acetonitrile:methanol (3:1) containing internal standard. […] The supernatant was transferred to a 96-well analysis plate and analyzed, using optimized LC/MS/MS conditions. For every experiment, 3 mice were used per compound, per dose. The plasma concentration-time profile was obtained by plotting the mean value from the three animals at each time point. Various PK parameters, such as Cmax (maximum concentration), area under curve (AUC) and oral bioavailability (F) for compounds, were calculated by non-compartmental regression analysis, using an in-house fitting program developed at GNF [8]. All the in-life studies were carried out under protocols approved by the Animal Care and Use Committee (IACUC), following animal ethics guidelines of GNF.

T. b. brucei STIB795 = experiment: Hemolymphatic mouse model (stage 1 HAT efficacy model); format: in vivo; details: for % Cured / Mean day of Relapse / Mice Cured/Total: four days; for Minimum efficacious dose: QD dosing for four days, stage 1 model
Protocol: The T. b. brucei STIB795 acute mouse model mimics the hemolymphatic stage of the sleeping sickness disease. We used six female NMRI mice per experimental group, divided into two cages. Heparinized blood from a donor mouse with approximately 5 × 10^6 per mL parasitemia was suspended in phosphate saline glucose (PSG), to obtain a parasite suspension of […]. Each mouse was injected with 0.25 mL of parasite suspension (10^4 bloodstream forms of T. b. brucei STIB795) intraperitoneally. All compounds were formulated in 0.5% methylcellulose and 0.5% Tween80. Three days post-infection, test compounds were administered orally on four consecutive days, in a volume of 100 µL/10 g. Three mice served as infected–untreated controls. […] Until 31 days post-infection, parasitemia was monitored microscopically by tail-blood examination twice a week. Mice were considered cured when there was no parasitemia detected in the tail blood. All the results from the individual experiments were reported as number of mice cured over total number of mice treated. A Kaplan–Meier plot was used for representing the number of mice cured at different treatment doses.

[5] = test system: MDR1-MDCK (Multi Drug Resistant 1 overexpressing Madin–Darby canine kidney cells); experiment: in vitro; details: dog
Protocol: In order to evaluate potential of brain permeability, all three compounds were tested in an MDR1-MDCK permeability assay. […] Those that have a high efflux ratio are generally substrates for Pgp transporters, thereby having a higher propensity to be excluded from the brain. […] To assess directly the TP compounds’ ability to penetrate brain, mice were dosed with compound, and plasma and brains were collected after 5 and 60 min following intravenous dosing.

[6] = Brain-to-plasma drug concentration ratio in mice; format: in vivo; details: mouse, read-out: B/P Ratio; for Kp at 5 min: 5 min after 1 mg/kg i.v.; for Kp at 60 min: 60 min after 1 mg/kg i.v.
Protocol: For measurement of the brain-to-plasma drug concentration ratio, mice were dosed intravenously with 1 mg/kg compounds. Mice were euthanized at 5 and 60 min post-dosing, and blood and brains were collected. The compound concentrations in plasma and brains were measured, following the protocol described above.

[7] = test system: T. b. brucei (GVR35-VSL2); experiment: Meningoencephalic mouse model (stage 2 HAT efficacy model, GVR35) with bioluminescence imaging; format: in vivo; details: for % Cured / Mean Day of Relapse / Day of Relapse, mice which did not relapse (value in parenthesis) / Mice Cured/Total: seven days; for Dose that completely cured stage 2 infection: HAT mouse model
Protocol: The GVR35 mouse CNS model mimics the second (meningoencephalic) stage of African trypanosomiasis. Female CD1 mice (~8 weeks old, from Charles River) were injected intraperitoneally (i.p.) with 3 × 10^4 T. b. brucei (GVR35-VSL2) bloodstream-form parasites. As controls, a group of three untreated mice and another group of three mice treated with diminazene aceturate (DA) were included. […] Mice treated with DA usually relapse after 42 days post-infection. […]
Blood parasitemia was quantified weekly from day 21/22, by microscopy of blood from the tail vein. Mice were imaged for bioluminescence using an in vivo imaging system (IVIS) prior to treatment on day 21/22, and weekly after treatment, as described previously. Briefly, mice, in groups of three, were injected i.p. with 150 mg of D-luciferin (Promega) per kilogram body weight in PBS and imaged after 10 min, using an IVIS Spectrum (PerkinElmer, Waltham, Massachusetts MA, USA). Living Image Software (PerkinElmer) was used for acquisition and analysis of bioluminescence imaging data. Bioluminescence in the same rectangular region of interest (ROI) on whole-body mouse images was quantified and is shown in total flux (photons per second). Images were cropped to the ROIs and composites of images from representative mice are shown. Uncured mice were euthanized within 1 or 2 days of parasite detection in the blood. Cured mice were euthanized between day 92 and 101 post-infection. All the results from the individual experiments were reported as number of mice cured over total number of mice treated. A Kaplan–Meier plot was used for representing the number of mice cured at different treatment doses.

[8] = liver microsomes, read-out: Mouse liver microsomal clearance

Cc1nc(C)c(C(=O)Nc2ccc(F)c(-c3nc4ncc(-c5ccccn5)cn4n3)c2)o1 [GNF6702]
logD [1]: 2.32 | PAMPA Permeability (% FA) [2]: 92 % FA | microsomal CLint ([3]; microsomes): 34.1 µL/min/mg | T1/2 [4]: 7.0 H | Vd ([4]; in vivo): 1.2 L/kg | clearance ([4]; plasma): 2.26 mL/min/kg | % Cured (T. b. brucei STIB795; 0.1 mg/kg QD oral): 0% | Mean day of Relapse (T. b. brucei STIB795; 0.1 mg/kg QD oral): 6.83 days post infection | % Cured (T. b. brucei STIB795; 0.3 mg/kg QD oral): 33.3% | Mean day of Relapse (T. b. brucei STIB795; 0.3 mg/kg QD oral): 19 days post infection | % Cured (T. b. brucei STIB795; 1 mg/kg QD oral): 100% | Mean day of Relapse (T. b. brucei STIB795; 1 mg/kg QD oral): >31 days post infection | % Cured (T. b. brucei STIB795; 3 mg/kg QD oral): 100% | Mean day of Relapse (T. b. brucei STIB795; 3 mg/kg QD oral): >31 days post infection | % Cured (T. b. brucei STIB795; 10 mg/kg QD oral): 100% | Mean day of Relapse (T. b. brucei STIB795; 10 mg/kg QD oral): >31 days post infection | Minimum efficacious dose (T. b. brucei STIB795): 1 mg/kg | MDR1-MDCK A–B [5]: 8.3 | MDR1-MDCK B–A [5]: 22.1 | Kp at 5 min ([6]; in vivo): 0.13 | Kp at 60 min ([6]; in vivo): 0.17 | % Cured ([7]; 3 mg/kg QD oral): 0% | Mean Day of Relapse ([7]; 3 mg/kg QD oral): 47 days post infection | % Cured ([7]; 10 mg/kg QD oral): 66% | Day of Relapse, mice which did not relapse (value in parenthesis) ([7]; 10 mg/kg QD oral): > 92 days post infection | Mean Day of Relapse ([7]; 10 mg/kg QD oral, mice which relapsed): 50 days post infection | % Cured ([7]; 30 mg/kg QD oral): 100% | Mean Day of Relapse ([7]; 30 mg/kg QD oral): >92 days post infection | % Cured ([7]; 100 mg/kg QD oral): 100% | Mean Day of Relapse ([7]; 100 mg/kg QD oral): >92 days post infection | Cure outcome ([7]; 30 and 100 mg/kg, once daily, oral): complete cure | Dose that completely cured stage 2 infection [7]: 30 mg/kg

Cc1nc(C)c(C(=O)Nc2ccc(F)c(-c3nc4ncc(-c5ccccc5)cn4n3)c2)o1 [GNF3849]
logD [1]: 3.31 | PAMPA Permeability (% FA) [2]: 96 % FA | microsomal CLint [3, 8]: 15.2 µL/min/mg | T1/2 [4]: 6.5 H | half-life ([4]; plasma): 6.5 h | Vd ([4]; plasma): 1.2 L/kg | % Cured (T. b. brucei STIB795; 7.5 mg/kg QD oral): 100% | Mean day of Relapse (T. b. brucei STIB795; 7.5 mg/kg QD oral): >31 days post infection | Mice Cured/Total (T. b. brucei STIB795; 7.5 mg/kg QD oral): 6/6 | % Cured (T. b. brucei STIB795; 25 mg/kg QD oral): 100% | Mean day of Relapse (T. b. brucei STIB795; 25 mg/kg QD oral): >31 days post infection | Mice Cured/Total (T. b. brucei STIB795; 25 mg/kg QD oral): 6/6 | % Cured (T. b. brucei STIB795; 75 mg/kg QD oral): 100% | Mean day of Relapse (T. b. brucei STIB795; 75 mg/kg QD oral): >31 days post infection | Mice Cured/Total (T. b. brucei STIB795; 75 mg/kg QD oral): 6/6 | Cure outcome (T. b. brucei STIB795; all doses: 7.5, 25 and 75 mg/kg, once daily, for four days): complete cure | MDR1-MDCK A–B [5]: 4.5 | MDR1-MDCK B–A [5]: 14.1 | Kp at 5 min ([6]; brain and plasma, intravenous): 0.22 | Kp at 60 min ([6]; brain and plasma, intravenous): 0.28 | % Cured ([7]; 7.5 mg/kg QD oral): 0% | Mean Day of Relapse ([7]; 7.5 mg/kg QD oral): 37 days post infection | Mice Cured/Total ([7]; 7.5 mg/kg QD oral): 0/6 | % Cured ([7]; 75 mg/kg QD oral): 50% | Day of Relapse, mice which did not relapse (value in parenthesis) ([7]; 75 mg/kg QD oral): > 92 days post infection | Mice Cured/Total ([7]; 75 mg/kg QD oral): 3/6 | Mean Day of Relapse ([7]; 75 mg/kg QD oral, mice which relapsed): 60 days post infection | Cure outcome ([7]; 7.5 and 75 mg/kg, once daily): failed to achieve complete cure

Cc1nc(C)c(C(=O)Nc2ccc(F)c(-c3nc4ncc(C(C)(C)C)cn4n3)c2)o1 [NITD689]
logD [1]: 3.05 | PAMPA Permeability (% FA) [2]: 99.1 % FA | microsomal CLint [3, 8]: 7.41 µL/min/mg | T1/2 [4]: 1.6 H | clearance ([4]; plasma): 13.5 mL/min/kg | half-life ([4]; plasma): 1.6 h | Vd ([4]; plasma): 1.5 L/kg | % Cured (T. b. brucei STIB795; 1 mg/kg QD oral): 0% | Mean day of Relapse (T. b. brucei STIB795; 1 mg/kg QD oral): 19.5 days post infection | Mice Cured/Total (T. b. brucei STIB795; 1 mg/kg QD oral): 0/6 | % Cured (T. b. brucei STIB795; 1.5 mg/kg BID oral): 16.7% | Mean day of Relapse (T. b. brucei STIB795; 1.5 mg/kg BID oral): 21 days post infection | Mice Cured/Total (T. b. brucei STIB795; 1.5 mg/kg BID oral): 1/6 | % Cured (T. b. brucei STIB795; 3 mg/kg QD oral): 50% | Mean day of Relapse (T. b. brucei STIB795; 3 mg/kg QD oral): 21 days post infection | Mice Cured/Total (T. b. brucei STIB795; 3 mg/kg QD oral): 3/6 | % Cured (T. b. brucei STIB795; 10 mg/kg QD oral): 100% | Mean day of Relapse (T. b. brucei STIB795; 10 mg/kg QD oral): >31 days post infection | Mice Cured/Total (T. b. brucei STIB795; 10 mg/kg QD oral): 6/6 | Minimum efficacious dose (T. b. brucei STIB795): 10 mg/kg | MDR1-MDCK A–B [5]: 32.6 | MDR1-MDCK B–A [5]: 29.2 | Kp at 5 min ([6]; brain and plasma, intravenous): 0.12 | Kp at 60 min ([6]; brain and plasma, intravenous): 0.12 | % Cured ([7]; 15 mg/kg BID oral): 0% | Mean Day of Relapse ([7]; 15 mg/kg BID oral): 42 days post infection | Mice Cured/Total ([7]; 15 mg/kg BID oral): 0/6 | Cure outcome ([7]; 15 mg/kg twice daily and 30 mg/kg once daily): failed to cure | % Cured ([7]; 30 mg/kg BID oral): 100% | Mean Day of Relapse ([7]; 30 mg/kg BID oral): >94 days post infection | Mice Cured/Total ([7]; 30 mg/kg BID oral): 6/6 | % Cured ([7]; 30 mg/kg QD oral): 0% | Mean Day of Relapse ([7]; 30 mg/kg QD oral): 50 days post infection | Mice Cured/Total ([7]; 30 mg/kg QD oral): 0/6 | Cure outcome ([7]; 30 mg/kg twice daily and 60 mg/kg once daily): complete cure | % Cured ([7]; 60 mg/kg QD oral): 100% | Mean Day of Relapse ([7]; 60 mg/kg QD oral): >94 days post infection | Mice Cured/Total ([7]; 60 mg/kg QD oral): 6/6 | Dose that completely cured stage 2 infection [7]: 60 mg/kg
